In patent publication US20110178105A1, “CLINICAL BENEFITS OF EICOSAPENTAENOIC ACID IN HUMANS” (E.I. DU PONT DE NEMOURS AND COMPANY, priority 2010, published 2011):
Values joined by “and” are separate entries in the source; they are usually repeats but may differ in a detail not shown here. Equal values may be shown once. “Also recorded” adds a separate entry of the source.

How the values were obtained:
[1] = Clinical study: serum fatty acid profiles (EPA, ARA/EPA, Total Omega-3 Score); type: in vivo, human; details: 6 weeks; for serum ratio of ARA/EPA (Inflammation Index): FIG. 3
Method: (§1) On the samples obtained 4 hours after the fat-rich meal, total cholesterol, triglycerides, direct HDL cholesterol, and direct LDL cholesterol were measured. Direct LDL cholesterol and small dense LDL cholesterol levels were measured using kits obtained from Denka-Seiken Corporation, (Tokyo, Japan), as previously described (Okada, M. et al., supra; Hirano, T. et al., supra; Ai, M. et al., supra). Remnant lipoprotein cholesterol was measured using kits obtained from Polymedco (Cortland Manor, N.Y.) and manufactured by Otsuka Corporation (Tokyo, Japan) as previously described (McNamara, J. R. et al., Atherosclerosis, supra). All lipid assays are standardized through the Lipid Research Clinics standardization program of the Centers for Disease Control (Atlanta, Ga.). All assays had between and within run coefficients of variation of <5%. Serum fatty acid profiles were analyzed by Nutrasource Diagnostics (Guelph, Ontario, Canada).

[2] = Clinical study: inflammation markers, adhesion molecules, adiponectin (hsCRP, IL-6, sICAM, VCAM); type: in vivo, human; details: Fast, 6 weeks
Method: (§2) The following laboratory measurements were carried out on an automated analyzer (Roche Diagnostics, Indianapolis, Ind.) on samples obtained in the fasting state at the randomization visit, and the final visits using frozen aliquots of serum stored at −80 degrees Celsius: 1) total cholesterol; 2) triglycerides; 3) direct high density lipoprotein [“HDL”] cholesterol; 4) direct low density lipoprotein [“LDL”] cholesterol; 5) direct small dense LDL cholesterol; 6) apolipoprotein [“apo”] B; 7) apoA-I; 8) lipoprotein (a); 9) fibrinogen; 10) high sensitivity C reactive protein [“hs-CRP”]; 11) lipoprotein associated phospholipase A2 [“Lp-PLA2”]; and, 12) insulin as previously described. See, McNamara, J. R. and Schaefer, E. J., Clin. Chim. Acta, 166:1-8 (1987); Okada, M. et al., J. Lab. Clin. Med., 132:195-201 (1998); Hirano, T. et al., J. Lipid Res., 44:2193-2201 (2003); Ai, M. et al., Am. J. Cardiol., 101:315-318 (2008); Ingelsson, E. et al., JAMA, 298:776-785 (2007); Jenner, J. L. et al., Circulation, 87:1135-1141 (1993); Schaefer, E. J. et al., Am. J. Cardiol., 95:1025-1032 (2005); McNamara, J. R. et al., Atherosclerosis, 154:229-236 (2001).
Plasma apoB-48 was measured with an enzyme linked immunosorbent assay obtained from the Shibayagi Company (Gunma, Japan) (Kinoshita, M. et al., Clin. Chim. Acta, 351:115-120 (2005); Otokozawa, S. et al., Atherosclerosis, 205:197-201 (2009); Otokozawa, S. et al., Metabolism, 58(11): 1536-1542 (2009)). ICAM1 and VCAM1, interleukin-6 or IL-6, and adiponectin were all measured using commercially available enzyme linked immunoassays [“ELISA”] obtained from the R & D Corporation (Minneapolis, Minn.). All these assays have within and between run coefficients of variation of less than 10%.

[3] = cited from earlier work
[4] = Clinical study: fasting serum lipids, lipoproteins and apolipoproteins (automated analyzer); type: in vivo, human; details: 6 weeks; for HDL C, 6-Week Change (%) / HDL C, Final / LDL C, 6-Week Change (%) / LDL C, Final / Lp(a), 6-Week Change (%) / Lp(a), Final / Total Cholesterol, 6-Week Change (%) / Total Cholesterol, Final / Triglyceride, 6-Week Change (%) / Triglyceride, Final / apoA-I, 6-Week Change (%) / apoA-I, Final / apoB, 6-Week Change (%) / apoB, Final / sdLDL, 6-Week Change (%) / sdLDL, Final: Fast
Method: (§3) At visit 2, subjects were again asked to fast for 12 hours, and information about subject characteristics including all vital signs, recent illness or hospitalization, medication and supplement use, and diet information was again obtained. Subjects then had blood drawn for a metabolic profile and complete blood counts. […] Subjects (30 in each group) were then randomized equally for 6 weeks to one of four treatment arms: 1) olive oil placebo; 2) 600 mg of EPA/day; 3) 1800 mg of EPA/day; and, 4) 600 mg of DHA/day. At one week and three weeks after beginning the supplements, all study subjects were contacted by telephone and asked about any adverse effects and about their compliance, and the information on their calendars with regard to capsule use and fish intake. They were also asked about whether they had experienced any fishy aftertaste or odor, and if so, how frequent were these episodes, and how unpleasant were they? The entire process as listed above was repeated after study subjects were on the study capsules for 6 weeks at the time of the final visit. Compliance and adverse events were assessed by telephone at weeks 1 and 3 by telephone and at week 6 by questionnaire and capsule count. Over 42 days, subjects were expected to have consumed a total of 252 capsules. Compliance was calculated as a percentage of consumed capsule count/expected capsule count based on the number of days the subject was in the study. All subjects were asked to stay on their capsules until they come in for their final visit. Compliance in all participants who completed the study was based on capsule count was in excess of 85%, mean 96%.
as §2, §1

[5] = Clinical study: post-prandial lipids 4 hours after fat-rich test meal; type: in vivo, human; details: 6 weeks
Method: as §3, §1

CCC=CCC=CCC=CCC=CC/C=C\CCCC(=O)O [EPA, cis-5,8, 11, 14, 17-eicosapentaenoic acid]
metabolic conversion of EPA to DHA [1]: no indication
Total Omega-3 Score ([1]; FIG. 4): increased
serum level of EPA ([1]; EPA 600 and 1800 mg/day, DHA 600 mg/day, FIG. 1): significantly raised
serum ratio of ARA/EPA (Inflammation Index) ([1]; EPA 600 and 1800 mg/day, DHA 600 mg/day, listed as EPA substantially free of DHA): significantly decreased
serum ratio of ARA/EPA (Inflammation Index) ([1]; EPA 600 and 1800 mg/day, DHA 600 mg/day, listed as EPA-rich oil): dose-related decrease; also recorded: significantly decreased
Adiponectin, 6-Week Change (%) ([2]; EPA 600 mg (n = 27)): 11.3 ± 31.4%
Adiponectin, Final ([2]; EPA 600 mg (n = 27)): 9501.4 ± 5894.3 ng/mL
IL-6, 6-Week Change (%) ([2]; EPA 600 mg (n = 27)): +35.3 ± 126.1%
IL-6, Final ([2]; EPA 600 mg (n = 27)): 2.0 ± 1.8 pg/mL
VCAM, 6-Week Change (%) ([2]; EPA 600 mg (n = 27)): +2.2 ± 12.6%
VCAM, Final ([2]; EPA 600 mg (n = 27)): 722.8 ± 178.0 ng/mL
hsCRP, 6-Week Change (%) ([2]; EPA 600 mg (n = 27)): +115.6 ± 508.4%
hsCRP, Final ([2]; EPA 600 mg (n = 27)): 3.3 ± 4.9 mg/L
sICAM, 6-Week Change (%) ([2]; EPA 600 mg (n = 27)): +3.2 ± 19.0%
sICAM, Final ([2]; EPA 600 mg (n = 27)): 232.4 ± 62.7 ng/mL
Adiponectin, 6-Week Change (%) ([2]; EPA 1800 mg (n = 29)): 16.4 ± 82.6%
Adiponectin, Final ([2]; EPA 1800 mg (n = 29)): 17578.6 ± 45606.9 ng/mL
IL-6, 6-Week Change (%) ([2]; EPA 1800 mg (n = 29)): +3.1 ± 50.1%
IL-6, Final ([2]; EPA 1800 mg (n = 29)): 1.3 ± 0.7 pg/mL
VCAM, 6-Week Change (%) ([2]; EPA 1800 mg (n = 29)): +1.0 ± 13.5%
VCAM, Final ([2]; EPA 1800 mg (n = 29)): 607.5 ± 125.7 ng/mL
hsCRP, 6-Week Change (%) ([2]; EPA 1800 mg (n = 29)): +26.0 ± 113.0%
hsCRP, Final ([2]; EPA 1800 mg (n = 29)): 2.7 ± 4.7 mg/L
sICAM, 6-Week Change (%) ([2]; EPA 1800 mg (n = 29)): −2.6 ± 17.1%
sICAM, Final ([2]; EPA 1800 mg (n = 29)): 206.9 ± 50.5 ng/mL
better absorbed than EE forms ([3]; TG forms): 48%
EPA incorporation into plasma lipids ([3]; administered as an EE): considerably smaller
LDL cholesterol levels ([4]; FIG. 5): did not increase
HDL C, 6-Week Change (%) ([4]; EPA 600 mg (n = 27)): +0.4 ± 13.7%
HDL C, Final ([4]; EPA 600 mg (n = 27)): 57.9 ± 18.0 mg/dL
LDL C, 6-Week Change (%) ([4]; EPA 600 mg (n = 27)): −2.5 ± 11.7%
LDL C, Final ([4]; EPA 600 mg (n = 27)): 118.1 ± 35.8 mg/dL
Lp(a), 6-Week Change (%) ([4]; EPA 600 mg (n = 27)): +18.3 ± 84.8%
Lp(a), Final ([4]; EPA 600 mg (n = 27)): 32.8 ± 32.4 mg/dL
Total Cholesterol, 6-Week Change (%) ([4]; EPA 600 mg (n = 27)): −1.8 ± 9.5%
Total Cholesterol, Final ([4]; EPA 600 mg (n = 27)): 199.2 ± 48.7 mg/dL
Triglyceride, 6-Week Change (%) ([4]; EPA 600 mg (n = 27)): −1.3 ± 31.6%
Triglyceride, Final ([4]; EPA 600 mg (n = 27)): 107.0 ± 43.2 mg/dL
apoA-I, 6-Week Change (%) ([4]; EPA 600 mg (n = 27)): −1.3 ± 12.4%
apoA-I, Final ([4]; EPA 600 mg (n = 27)): 173.6 ± 36.3 mg/dL
apoB, 6-Week Change (%) ([4]; EPA 600 mg (n = 27)): −2.3 ± 10.9%
apoB, Final ([4]; EPA 600 mg (n = 27)): 90.1 ± 22.8 mg/dL
sdLDL, 6-Week Change (%) ([4]; EPA 600 mg (n = 27)): −7.3 ± 18.2%
sdLDL, Final ([4]; EPA 600 mg (n = 27)): 29.5 ± 12.0 mg/dL
decrease versus baseline in small dense LDL cholesterol ([4]; EPA 600 mg/day, p=0.0087): 7.3%
HDL C, 6-Week Change (%) ([4]; EPA 1800 mg (n = 29)): +2.5 ± 12.7%
HDL C, Final ([4]; EPA 1800 mg (n = 29)): 59.9 ± 15.7 mg/dL
LDL C, 6-Week Change (%) ([4]; EPA 1800 mg (n = 29)): −2.0 ± 13.7%
LDL C, Final ([4]; EPA 1800 mg (n = 29)): 120.6 ± 26.8 mg/dL
Lp(a), 6-Week Change (%) ([4]; EPA 1800 mg (n = 29)): +5.1 ± 26.1%
Lp(a), Final ([4]; EPA 1800 mg (n = 29)): 32.2 ± 23.6 mg/dL
Total Cholesterol, 6-Week Change (%) ([4]; EPA 1800 mg (n = 29)): −1.7 ± 11.2%
Total Cholesterol, Final ([4]; EPA 1800 mg (n = 29)): 201.1 ± 35.3 mg/dL
Triglyceride, 6-Week Change (%) ([4]; EPA 1800 mg (n = 29)): −5.0% and −5.0 ± 28.6%
Triglyceride, Final ([4]; EPA 1800 mg (n = 29)): 102.8 ± 82.8 mg/dL
apoA-I, 6-Week Change (%) ([4]; EPA 1800 mg (n = 29)): +0.4 ± 10.8%
apoA-I, Final ([4]; EPA 1800 mg (n = 29)): 173.1 ± 31.3 mg/dL
apoB, 6-Week Change (%) ([4]; EPA 1800 mg (n = 29)): −1.6 ± 12.2%
apoB, Final ([4]; EPA 1800 mg (n = 29)): 91.7 ± 19.1 mg/dL
sdLDL, 6-Week Change (%) ([4]; EPA 1800 mg (n = 29)): −8.8 ± 19.5%
sdLDL, Final ([4]; EPA 1800 mg (n = 29)): 30.6 ± 9.4 mg/dL
decrease versus baseline in small dense LDL cholesterol ([4]; EPA 1800 mg/day, p=0.018): 8.8%
HDL C, 6-Week Change (%) ([5]; EPA 600 mg (n = 27)): +4.8 ± 20.7%
HDL C, Final ([5]; EPA 600 mg (n = 27)): 53.1 ± 16.4 mg/dL
LDL C, 6-Week Change (%) ([5]; EPA 600 mg (n = 27)): −1.4 ± 12.9%
LDL C, Final ([5]; EPA 600 mg (n = 27)): 108.2 ± 32.2 mg/dL
Total Cholesterol, 6-Week Change (%) ([5]; EPA 600 mg (n = 27)): −0.3 ± 8.6%
Total Cholesterol, Final ([5]; EPA 600 mg (n = 27)): 193.3 ± 44.7 mg/dL
Triglyceride, 6-Week Change (%) ([5]; EPA 600 mg (n = 27)): −3.1 ± 36.9%
Triglyceride, Final ([5]; EPA 600 mg (n = 27)): 184.9 ± 98.5 mg/dL
HDL C, 6-Week Change (%) ([5]; EPA 1800 mg (n = 29)): +3.4 ± 11.5%
HDL C, Final ([5]; EPA 1800 mg (n = 29)): 55.3 ± 15.3 mg/dL
LDL C, 6-Week Change (%) ([5]; EPA 1800 mg (n = 29)): −2.7 ± 13.6%
LDL C, Final ([5]; EPA 1800 mg (n = 29)): 111.5 ± 25.2 mg/dL
Total Cholesterol, 6-Week Change (%) ([5]; EPA 1800 mg (n = 29)): −1.4 ± 9.9%
Total Cholesterol, Final ([5]; EPA 1800 mg (n = 29)): 197.3 ± 33.8 mg/dL
Triglyceride, 6-Week Change (%) ([5]; EPA 1800 mg (n = 29)): −3.8 ± 40.2%
Triglyceride, Final ([5]; EPA 1800 mg (n = 29)): 193.5 ± 184.2 mg/dL
